From paper PMC4901301 (Scientific Reports, 2016)

Tested on: Mtb H37Rv thyX Tet-OFF conditional knockdown mutant
Format: cell-based, Mycobacterium tuberculosis

Row | SMILES | MIC90 shift (increase in potency) upon ThyX depletion
1 | O=C1C=C(Cc2ccc(F)cc2)C(=O)c2ccccc21 [Compound D4] | no shift
2 | COc1ccc(CC2=CC(=O)c3ccccc3C2=O)cc1 [Compound D5] | no shift
3 | CC(=O)N(C1=C(Cl)C(=O)c2ccccc2C1=O)c1cccc(F)c1 [Compound E10] | no shift
4 | O=C1C(Cl)=C(N2CCN(C(=O)c3ccc(F)cc3)CC2)C(=O)c2ccccc21 [Compound F1] | no shift
5 | CCS(=O)(=O)N1CCN(C2=C(Cl)C(=O)c3ccccc3C2=O)CC1 [Compound F2] | ~ 2 fold
